Measurements: article PMC11208024, “Cholestenoic acid as endogenous epigenetic regulator decreases hepatocyte lipid accumulation in vitro and in vivo” (American Journal of Physiology - Gastrointestinal and Liver …, 2023)

Columns and labels:
Assay type in all cases: biochemical
[1] = molecular target: T1, DNA methyltransferases 1 (DNMT1) (Homo sapiens, UniProt P26358); assay: radiometric methyltransferase assay with recombinant enzyme, poly(dI-dC) and 3H-SAM; activation at low, inhibition at higher concentration (IC50 […])
T1 sequence (P26358 whole entry): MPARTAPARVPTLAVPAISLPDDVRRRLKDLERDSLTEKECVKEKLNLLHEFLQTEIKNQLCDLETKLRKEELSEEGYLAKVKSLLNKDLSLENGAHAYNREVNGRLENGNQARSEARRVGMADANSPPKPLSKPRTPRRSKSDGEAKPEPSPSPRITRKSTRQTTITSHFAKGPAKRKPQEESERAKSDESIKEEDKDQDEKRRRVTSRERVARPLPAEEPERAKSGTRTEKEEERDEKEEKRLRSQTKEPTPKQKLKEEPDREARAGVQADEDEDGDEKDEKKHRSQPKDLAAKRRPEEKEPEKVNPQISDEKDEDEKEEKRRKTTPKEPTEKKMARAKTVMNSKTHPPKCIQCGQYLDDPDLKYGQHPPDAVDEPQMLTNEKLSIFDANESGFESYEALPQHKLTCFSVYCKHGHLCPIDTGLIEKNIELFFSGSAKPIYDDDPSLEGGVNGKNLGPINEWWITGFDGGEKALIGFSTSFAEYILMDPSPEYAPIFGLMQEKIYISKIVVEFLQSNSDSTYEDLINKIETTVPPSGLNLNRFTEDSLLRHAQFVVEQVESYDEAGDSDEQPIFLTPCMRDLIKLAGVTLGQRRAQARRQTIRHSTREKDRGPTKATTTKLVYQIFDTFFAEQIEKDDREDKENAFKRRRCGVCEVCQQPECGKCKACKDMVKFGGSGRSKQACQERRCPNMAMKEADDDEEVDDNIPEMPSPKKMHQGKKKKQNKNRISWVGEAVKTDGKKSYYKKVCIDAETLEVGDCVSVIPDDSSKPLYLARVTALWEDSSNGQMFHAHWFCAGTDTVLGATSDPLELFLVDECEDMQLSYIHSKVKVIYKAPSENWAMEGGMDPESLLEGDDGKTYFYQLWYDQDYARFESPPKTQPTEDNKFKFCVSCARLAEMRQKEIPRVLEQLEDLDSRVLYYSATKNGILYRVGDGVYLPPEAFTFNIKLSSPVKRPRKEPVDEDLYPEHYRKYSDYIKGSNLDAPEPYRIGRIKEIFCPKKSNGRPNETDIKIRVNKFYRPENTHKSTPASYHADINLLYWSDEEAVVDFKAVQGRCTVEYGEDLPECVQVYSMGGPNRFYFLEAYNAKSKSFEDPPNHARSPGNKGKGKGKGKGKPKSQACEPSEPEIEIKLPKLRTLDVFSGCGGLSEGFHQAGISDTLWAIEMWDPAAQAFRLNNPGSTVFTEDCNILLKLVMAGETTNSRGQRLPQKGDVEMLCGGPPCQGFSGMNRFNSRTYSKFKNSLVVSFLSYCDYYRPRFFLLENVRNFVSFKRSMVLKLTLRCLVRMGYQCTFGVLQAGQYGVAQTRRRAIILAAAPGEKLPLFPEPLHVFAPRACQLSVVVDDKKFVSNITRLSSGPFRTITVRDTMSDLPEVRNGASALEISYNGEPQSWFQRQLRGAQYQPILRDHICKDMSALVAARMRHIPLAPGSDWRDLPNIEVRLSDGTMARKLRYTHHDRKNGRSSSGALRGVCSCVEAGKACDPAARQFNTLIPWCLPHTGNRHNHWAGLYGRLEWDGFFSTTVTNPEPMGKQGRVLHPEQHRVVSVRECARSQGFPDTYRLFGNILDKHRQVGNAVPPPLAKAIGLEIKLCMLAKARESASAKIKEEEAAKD

[2] = molecular target: DNMT3a (Homo sapiens, UniProt Q9Y6K1); assay: radiometric methyltransferase assay with recombinant enzyme, Lambda DNA substrate and 3H-SAM
DNMT3a, sequence (Q9Y6K1 whole entry, looked up): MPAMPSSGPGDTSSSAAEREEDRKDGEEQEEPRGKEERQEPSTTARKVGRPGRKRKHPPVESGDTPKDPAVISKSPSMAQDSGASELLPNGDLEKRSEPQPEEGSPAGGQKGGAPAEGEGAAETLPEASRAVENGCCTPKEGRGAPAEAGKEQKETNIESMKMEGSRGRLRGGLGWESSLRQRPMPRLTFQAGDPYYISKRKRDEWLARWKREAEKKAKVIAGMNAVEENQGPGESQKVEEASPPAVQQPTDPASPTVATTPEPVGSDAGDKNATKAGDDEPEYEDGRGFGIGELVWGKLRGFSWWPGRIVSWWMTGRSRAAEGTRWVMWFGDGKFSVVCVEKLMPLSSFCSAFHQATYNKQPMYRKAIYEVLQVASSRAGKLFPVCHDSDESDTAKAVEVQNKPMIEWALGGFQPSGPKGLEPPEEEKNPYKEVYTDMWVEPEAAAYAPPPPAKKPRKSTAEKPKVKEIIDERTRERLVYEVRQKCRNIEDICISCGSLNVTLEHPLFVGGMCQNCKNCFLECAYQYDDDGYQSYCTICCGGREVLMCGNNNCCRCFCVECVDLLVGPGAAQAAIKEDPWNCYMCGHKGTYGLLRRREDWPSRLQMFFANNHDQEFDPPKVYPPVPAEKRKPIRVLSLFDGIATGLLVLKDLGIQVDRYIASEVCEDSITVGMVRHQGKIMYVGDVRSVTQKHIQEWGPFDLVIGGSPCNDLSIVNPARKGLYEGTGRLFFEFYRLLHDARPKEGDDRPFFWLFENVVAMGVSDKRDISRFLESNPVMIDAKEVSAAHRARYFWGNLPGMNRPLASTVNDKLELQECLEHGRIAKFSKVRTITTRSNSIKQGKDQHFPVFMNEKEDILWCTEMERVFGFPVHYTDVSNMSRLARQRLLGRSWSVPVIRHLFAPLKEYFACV

[3] = molecular target: DNMT3b (Homo sapiens, UniProt Q9UBC3); assay: as above
[4] = molecular target: T1, DNA methyltransferases 1 (DNMT1); assay: positive control in radiometric DNMT1 assay; […] inhibition at […]

Row | SMILES | EC50 [1] [µM] | IC50 [2] [µM] | IC50 [3] [µM] | inhibition at 1 µM [4] [%]
1 | C[C@H](CCC[C@@H](C)[C@H]1CC[C@H]2[C@@H]3CC=C4C[C@@H](O)CC[C@]4(C)[C@H]3CC[C@]12C)C(=O)O [CA, Cholestenoic acid] | 1.99 | 8.41 | 4.89 | 
2 | Nc1ncnc2c1ncn2[C@@H]1O[C@H](CSCC[C@H](N)C(=O)O)[C@@H](O)[C@H]1O [S-adenosyl homocysteine] |  |  |  | 95
